Assay results reported in US7750013B2, “N-oxides as prodrugs of piperazine and piperidine derivatives” (Solvay Pharmaceuticals, B.V., priority 2005, dated 2010).

Tests used:
α1A-adrenergic = α1A-adrenergic (Rattus norvegicus, UniProt P43140); experiment: In vitro receptor affinity, α1A-adrenergic; format: binding
Description: (§1) The binding data collected in the table below (Example 5: pharmacological test results) were either obtained by CEREP (128, rue Danton, 92500 Rueil-Malmaison, France) or at Solvay Pharmaceuticals B.V. (C. J. van Houtenlaan 36, 1381 CP Weesp, The Netherlands), using well documented standard procedures. The affinities for dopamine-D2 and 5-HT1A receptors for instance, was measured as described by Creese I, Schneider R and Snyder S H, [^3H]-Spiroperidol labels dopamine receptors in rat pituitary and brain, Eur J Pharmacol […], 46: 377-381 and Gozlan H, El Mestikawy S, Pichat L, Glowinsky J and Hamon M, 1983, Identification of presynaptic serotonin autoreceptors using a new ligand ^3H-PAT, Nature 1983, 305: 140-142.

α2C-adrenergic = α2C-adrenergic (Homo sapiens, UniProt P18825); experiment: In vitro receptor affinity, α2C-adrenergic; format: binding
Description: as §1

Dopamine-D1 = Dopamine-D1 (Homo sapiens, UniProt P21728); experiment: In vitro receptor affinity, Dopamine-D1; format: binding
Description: as §1

κ-opiate = κ-opiate (Rattus norvegicus, UniProt P34975); experiment: In vitro receptor affinity, κ-opiate; format: binding
Description: as §1

α2-adrenergic = experiment: In vitro receptor affinity, α2-adrenergic; format: binding; conditions: rat; radioligand [3H]-RX 821002
Description: as §1

5-HT2C = 5-HT2C (Homo sapiens, UniProt P28335); experiment: In vitro receptor affinity, 5-HT2C; format: binding
Description: as §1

5-HT1A = 5-HT1A (Homo sapiens, UniProt P08908); experiment: In vitro receptor affinity, 5-HT1A; format: binding
Description: as §1

Dopamine-D2S = Dopamine-D2S (Homo sapiens, UniProt P14416); experiment: In vitro receptor affinity, Dopamine-D2S; format: binding
Description: as §1

μ-opiate = μ-opiate (Rattus norvegicus, UniProt P33535); experiment: In vitro receptor affinity, μ-opiate; format: binding
Description: as §1

α1B-adrenergic = α1B-adrenergic (Rattus norvegicus, UniProt P15823); experiment: In vitro receptor affinity, α1B-adrenergic; format: binding
Description: as §1

5-HT3 = 5-HT3 (Rattus norvegicus, UniProt P35563); experiment: In vitro receptor affinity, 5-HT3; format: binding
Description: as §1

Dopamine-D4 = Dopamine-D4 (Homo sapiens, UniProt P21917); experiment: In vitro receptor affinity, Dopamine-D4; format: binding
Description: as §1

Sequence of Dopamine-D4 (P21917 whole entry): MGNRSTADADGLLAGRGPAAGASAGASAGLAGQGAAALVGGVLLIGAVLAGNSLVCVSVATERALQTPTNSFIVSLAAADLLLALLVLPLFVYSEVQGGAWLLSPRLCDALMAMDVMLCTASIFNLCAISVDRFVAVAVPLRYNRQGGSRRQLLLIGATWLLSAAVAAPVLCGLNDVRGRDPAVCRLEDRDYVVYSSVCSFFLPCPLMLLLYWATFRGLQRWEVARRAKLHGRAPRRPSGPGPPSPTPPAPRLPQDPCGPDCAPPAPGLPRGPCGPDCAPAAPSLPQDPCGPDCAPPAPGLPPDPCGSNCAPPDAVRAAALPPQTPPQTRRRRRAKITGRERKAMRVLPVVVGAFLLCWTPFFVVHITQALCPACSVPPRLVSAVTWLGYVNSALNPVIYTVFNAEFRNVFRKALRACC
Sequence of μ-opiate (P33535 whole entry): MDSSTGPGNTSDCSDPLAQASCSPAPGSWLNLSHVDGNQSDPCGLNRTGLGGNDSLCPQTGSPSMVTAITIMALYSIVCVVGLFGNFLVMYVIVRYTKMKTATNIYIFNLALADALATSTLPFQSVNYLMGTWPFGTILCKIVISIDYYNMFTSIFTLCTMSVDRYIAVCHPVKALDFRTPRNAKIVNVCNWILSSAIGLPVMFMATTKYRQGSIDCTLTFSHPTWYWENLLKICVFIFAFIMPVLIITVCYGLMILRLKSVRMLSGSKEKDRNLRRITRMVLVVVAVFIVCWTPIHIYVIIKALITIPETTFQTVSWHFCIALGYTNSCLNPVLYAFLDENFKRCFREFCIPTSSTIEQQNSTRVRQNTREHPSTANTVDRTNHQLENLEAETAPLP
Sequence of Dopamine-D1 (P21728 whole entry): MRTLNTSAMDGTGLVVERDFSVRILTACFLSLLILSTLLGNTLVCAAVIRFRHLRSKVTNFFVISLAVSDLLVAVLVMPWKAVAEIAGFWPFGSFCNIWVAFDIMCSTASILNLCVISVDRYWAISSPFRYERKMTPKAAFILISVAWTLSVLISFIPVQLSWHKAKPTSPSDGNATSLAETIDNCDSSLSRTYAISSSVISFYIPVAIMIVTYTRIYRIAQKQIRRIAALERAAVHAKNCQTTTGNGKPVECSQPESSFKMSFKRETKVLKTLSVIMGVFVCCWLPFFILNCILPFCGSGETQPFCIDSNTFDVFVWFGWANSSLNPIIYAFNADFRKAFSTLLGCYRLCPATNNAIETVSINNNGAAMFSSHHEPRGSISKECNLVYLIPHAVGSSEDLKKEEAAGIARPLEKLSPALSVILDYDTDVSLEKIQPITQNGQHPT
Sequence of α2C-adrenergic (P18825 whole entry): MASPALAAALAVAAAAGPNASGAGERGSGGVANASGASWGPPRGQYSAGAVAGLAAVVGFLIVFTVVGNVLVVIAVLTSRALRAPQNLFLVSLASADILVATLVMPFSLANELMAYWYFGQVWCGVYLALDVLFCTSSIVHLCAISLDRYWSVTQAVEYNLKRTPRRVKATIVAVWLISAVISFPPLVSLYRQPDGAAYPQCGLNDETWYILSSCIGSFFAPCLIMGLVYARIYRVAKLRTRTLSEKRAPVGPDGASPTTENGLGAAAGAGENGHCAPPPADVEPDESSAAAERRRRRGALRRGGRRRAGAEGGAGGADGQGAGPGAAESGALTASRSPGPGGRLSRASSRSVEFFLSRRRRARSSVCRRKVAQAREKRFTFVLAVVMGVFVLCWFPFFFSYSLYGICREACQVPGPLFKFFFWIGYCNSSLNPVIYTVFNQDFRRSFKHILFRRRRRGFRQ
Sequence of Dopamine-D2S (P14416 1-414 isoform P14416-2): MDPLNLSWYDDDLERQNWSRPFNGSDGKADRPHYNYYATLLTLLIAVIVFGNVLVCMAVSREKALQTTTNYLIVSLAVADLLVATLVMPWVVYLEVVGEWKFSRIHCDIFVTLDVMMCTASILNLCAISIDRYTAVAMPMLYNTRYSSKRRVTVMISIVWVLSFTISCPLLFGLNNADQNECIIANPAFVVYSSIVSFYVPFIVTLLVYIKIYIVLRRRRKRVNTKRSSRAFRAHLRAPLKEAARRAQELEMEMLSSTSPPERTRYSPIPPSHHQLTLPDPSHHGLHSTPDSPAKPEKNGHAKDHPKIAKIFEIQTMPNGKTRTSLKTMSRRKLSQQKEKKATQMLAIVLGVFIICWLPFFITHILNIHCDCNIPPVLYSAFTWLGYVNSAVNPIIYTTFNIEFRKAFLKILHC
Sequence of κ-opiate (P34975 whole entry): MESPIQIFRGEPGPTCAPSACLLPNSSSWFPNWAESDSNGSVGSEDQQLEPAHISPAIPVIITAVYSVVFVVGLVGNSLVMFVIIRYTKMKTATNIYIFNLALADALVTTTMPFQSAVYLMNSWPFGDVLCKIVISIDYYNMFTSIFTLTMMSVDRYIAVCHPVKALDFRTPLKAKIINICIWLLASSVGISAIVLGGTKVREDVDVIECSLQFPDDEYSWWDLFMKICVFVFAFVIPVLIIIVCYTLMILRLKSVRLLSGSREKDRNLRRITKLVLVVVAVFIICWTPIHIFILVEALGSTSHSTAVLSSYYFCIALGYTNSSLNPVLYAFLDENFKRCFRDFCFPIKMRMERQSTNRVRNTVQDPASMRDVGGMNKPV
Sequence of 5-HT3 (P35563 24-483): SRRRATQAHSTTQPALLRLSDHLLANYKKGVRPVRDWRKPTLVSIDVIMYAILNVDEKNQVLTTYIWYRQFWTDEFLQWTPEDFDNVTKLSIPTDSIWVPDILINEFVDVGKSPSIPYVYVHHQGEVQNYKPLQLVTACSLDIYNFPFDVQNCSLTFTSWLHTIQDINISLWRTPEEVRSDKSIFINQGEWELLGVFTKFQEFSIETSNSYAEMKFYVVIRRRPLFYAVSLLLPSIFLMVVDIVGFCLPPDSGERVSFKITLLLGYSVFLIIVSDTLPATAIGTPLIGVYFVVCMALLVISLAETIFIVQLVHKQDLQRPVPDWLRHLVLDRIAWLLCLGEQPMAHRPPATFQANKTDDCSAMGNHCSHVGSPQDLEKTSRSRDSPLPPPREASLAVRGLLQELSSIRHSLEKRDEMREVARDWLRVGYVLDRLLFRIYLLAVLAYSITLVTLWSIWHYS
Sequence of α1A-adrenergic (P43140 whole entry): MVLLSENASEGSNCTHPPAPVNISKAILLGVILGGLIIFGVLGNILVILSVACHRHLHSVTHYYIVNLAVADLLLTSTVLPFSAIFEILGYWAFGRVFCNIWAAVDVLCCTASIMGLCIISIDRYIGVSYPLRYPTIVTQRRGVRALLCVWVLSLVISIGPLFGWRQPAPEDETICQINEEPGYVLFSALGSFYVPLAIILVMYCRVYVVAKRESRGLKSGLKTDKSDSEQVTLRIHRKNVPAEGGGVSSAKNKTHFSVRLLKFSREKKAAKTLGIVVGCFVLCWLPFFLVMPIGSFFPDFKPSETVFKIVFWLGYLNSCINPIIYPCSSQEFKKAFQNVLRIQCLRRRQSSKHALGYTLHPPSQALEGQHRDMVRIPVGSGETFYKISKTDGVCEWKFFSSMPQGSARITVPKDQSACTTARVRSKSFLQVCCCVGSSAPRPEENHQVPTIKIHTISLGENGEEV
Sequence of 5-HT2C (P28335 33-458): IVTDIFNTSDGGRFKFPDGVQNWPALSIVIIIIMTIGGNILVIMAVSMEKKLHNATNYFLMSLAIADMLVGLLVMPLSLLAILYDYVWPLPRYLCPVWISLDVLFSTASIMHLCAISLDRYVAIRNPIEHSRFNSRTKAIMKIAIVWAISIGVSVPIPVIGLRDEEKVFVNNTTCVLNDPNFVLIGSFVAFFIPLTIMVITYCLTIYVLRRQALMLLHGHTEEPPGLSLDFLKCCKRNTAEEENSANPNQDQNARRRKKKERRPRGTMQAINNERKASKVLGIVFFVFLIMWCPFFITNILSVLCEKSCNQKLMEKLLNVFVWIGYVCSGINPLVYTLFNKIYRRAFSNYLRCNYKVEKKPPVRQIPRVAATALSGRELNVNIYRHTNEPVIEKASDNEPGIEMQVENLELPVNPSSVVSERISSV
Sequence of α1B-adrenergic (P15823 whole entry): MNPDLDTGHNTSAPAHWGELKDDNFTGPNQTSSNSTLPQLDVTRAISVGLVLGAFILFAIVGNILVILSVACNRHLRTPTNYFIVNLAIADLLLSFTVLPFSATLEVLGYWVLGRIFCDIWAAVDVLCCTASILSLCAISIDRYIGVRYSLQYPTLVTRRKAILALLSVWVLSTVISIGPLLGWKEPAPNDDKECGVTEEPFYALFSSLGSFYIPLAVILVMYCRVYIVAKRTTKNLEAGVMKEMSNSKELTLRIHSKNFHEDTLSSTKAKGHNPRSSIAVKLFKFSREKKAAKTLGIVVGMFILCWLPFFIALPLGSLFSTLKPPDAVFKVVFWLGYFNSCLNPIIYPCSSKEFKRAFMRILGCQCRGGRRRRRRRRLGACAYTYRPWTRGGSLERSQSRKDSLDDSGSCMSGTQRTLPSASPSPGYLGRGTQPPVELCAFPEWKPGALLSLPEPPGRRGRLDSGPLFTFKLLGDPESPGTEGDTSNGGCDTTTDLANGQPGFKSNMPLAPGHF
Sequence of 5-HT1A (P08908 whole entry): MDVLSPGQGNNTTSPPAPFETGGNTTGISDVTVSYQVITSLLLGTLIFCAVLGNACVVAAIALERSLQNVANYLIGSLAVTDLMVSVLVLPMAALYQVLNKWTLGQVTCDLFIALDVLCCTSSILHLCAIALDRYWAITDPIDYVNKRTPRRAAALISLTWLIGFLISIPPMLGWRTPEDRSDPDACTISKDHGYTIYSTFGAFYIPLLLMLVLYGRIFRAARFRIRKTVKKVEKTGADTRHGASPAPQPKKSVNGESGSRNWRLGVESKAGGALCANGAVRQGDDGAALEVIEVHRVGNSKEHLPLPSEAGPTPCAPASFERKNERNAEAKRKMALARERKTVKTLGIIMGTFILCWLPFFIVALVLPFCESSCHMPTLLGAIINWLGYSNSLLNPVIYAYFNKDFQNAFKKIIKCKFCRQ

## C[N+]1([O-])CCN(c2cccc3[nH]c(=O)oc23)CC1 [N-oxide of SLV308, N-Oxide of SLV308]
α1A-adrenergic
  Ki: 630 nM
α2C-adrenergic
  Ki: 400 nM
Dopamine-D1
  Ki: > 1000 nM
κ-opiate
  Ki: > 1000 nM
α2-adrenergic
  Ki: 500 nM
5-HT2C
  Ki: > 1000 nM
5-HT1A
  Ki: 200 nM
Dopamine-D2S
  Ki: > 1000 nM
μ-opiate
  Ki: > 1000 nM
α1B-adrenergic
  Ki: 400 nM
5-HT3
  Ki: > 1000 nM
other
  melting point: 242 to 243 °C
Dopamine-D4
  Ki: 130 nM
Dopamine-D4; potency ratio
  Factor by which affinities for dopamine-D4 receptors differ (N-oxide vs SLV308): 10
